The target of one experiment is T1, yeast PFT (Saccharomyces cerevisiae, UniProt P22007+P29703).
T1 construct: FTase was purified from SP1 cells carrying plasmids pBH28 and YEpDPR1 as described herein; made in house; host or cells: Saccharomyces cerevisiae SP1 carrying YEpDPR1 and pBH28
T1 sequence (P22007 1-431): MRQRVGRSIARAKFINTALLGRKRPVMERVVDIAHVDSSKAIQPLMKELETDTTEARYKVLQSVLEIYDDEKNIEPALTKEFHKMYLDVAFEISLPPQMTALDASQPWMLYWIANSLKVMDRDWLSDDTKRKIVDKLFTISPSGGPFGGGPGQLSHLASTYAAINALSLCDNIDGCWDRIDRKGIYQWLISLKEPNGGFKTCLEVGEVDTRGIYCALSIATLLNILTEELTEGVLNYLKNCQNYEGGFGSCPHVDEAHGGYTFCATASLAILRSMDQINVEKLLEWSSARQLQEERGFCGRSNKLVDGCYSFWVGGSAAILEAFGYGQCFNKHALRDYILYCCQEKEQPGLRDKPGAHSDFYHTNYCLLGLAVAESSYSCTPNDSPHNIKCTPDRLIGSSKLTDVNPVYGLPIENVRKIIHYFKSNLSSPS
T1 sequence (P29703 1-316): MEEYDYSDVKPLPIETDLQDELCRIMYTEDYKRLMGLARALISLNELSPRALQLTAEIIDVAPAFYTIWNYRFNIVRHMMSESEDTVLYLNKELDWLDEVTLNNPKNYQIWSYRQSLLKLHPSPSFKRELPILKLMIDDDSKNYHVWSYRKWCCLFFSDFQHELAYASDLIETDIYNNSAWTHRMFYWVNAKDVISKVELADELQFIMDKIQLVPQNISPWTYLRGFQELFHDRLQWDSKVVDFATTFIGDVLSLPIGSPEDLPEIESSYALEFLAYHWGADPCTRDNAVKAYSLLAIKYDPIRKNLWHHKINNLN
In words: Farnesyltransferase assay using RAS2CT1 protein and [3H]Fpp, without dithiothreitol. It is filed as biochemical, S. cerevisiae. The protocol:
(§1) Farnesyltransferase assay. FTase from S. cerevisiae was purified from yeast cells overexpressing DPR1 and RAM2 as described herein. Rat brain FTase was partially purified by the method described by Reiss et al. PGGT purified from bovine brain was a gift of Drs. M. Gelb and K. Yokoyama (Univ. of Washington). FTase assays were carried out using RAS2CT1 protein and [^3 H]Fpp according to the method described herein except that Tris-HCl(pH8) was used instead of phosphate buffer. PGGT assays were carried out using GST-CIIL protein and [^3 H]GGpp as described herein except that Tris-HCl(pH7.4) was used instead of phosphate buffer. […] Incubation was carried out at 37° C.
Inhibition of Farnesyltransferase.
To investigate the mechanism of inhibition by UCF1-C, kinetic analyses were carried out. […] The same Km value was observed when the Linewaver-Burke plot was analyzed under different ras and UCF1-C concentrations (.quadrature.=0 μM, .tangle-solidup.=10 μM, and .box-solid.=20 μM) in the presence of a constant concentration of Fpp.

For a further experiment, the target named is T2, PGGT I (Bos taurus, UniProt P29702+Q5EAD5).
T2 construct: PGGT purified from bovine brain was a gift of Drs; M. Gelb and K. Yokoyama; tissue gift of Drs; M. Gelb and K. Yokoyama (Univ. of Washington); host or cells: bovine brain
Kind of experiment: PGGT assay using GST-CIIL protein and [3H]GGpp. It is filed as biochemical, bovine. The protocol: as §1
FIG. 6B compares the effect of UCF1-C on PGGT I and PFT.

In a further experiment the target is T3, yeast FTase (Saccharomyces cerevisiae, UniProt P22007+P29703).
T3 construct: FTase was purified from SP1 cells carrying plasmids pBH28 and YEpDPR1 as described herein; made in house; host or cells: Saccharomyces cerevisiae SP1 carrying YEpDPR1 and pBH28
T3 sequence (P22007 1-431): T1 sequence (P22007 1-431)
T3 sequence (P29703 1-316): T1 sequence (P29703 1-316)
Kind of experiment: Prenyltransferase (FTase) assay with [3H]Fpp and GST-CIIS, purified yeast FTase. It counts as biochemical. To be noted: for inhibition of FTase activity by salts: 100 mM salt. Here is the method: Prenyltransferase assays were performed essentially as described in Goodman et al., 1990; Finegold et al., 1991. Briefly, the reaction mixture (20 μl) contained 50 mM potassium phosphate, pH 7.4 (or 50 mM Tris/HCl, pH 8.0), 10 mMMgCl2, 5 mM DTT, 5 μM ZnCl2, 0.8-1.12 μM [^3 H] farnesyl pyrophosphate (Fpp) (20 Ci/mmol; New England Nuclear) or [^3 H] geranylgeranyl pyrophosphate (GGpp) (20 Ci/mmol; New England Nuclear, Boston, Mass.), 19 μg of GST-CIIS or 30 μg of GST-CIIL protein and enzymes. Incubation was carried out at 37° C., and the radioactivity incorporated was determined by spotting the reaction mixture onto a filter paper, treating with 10% trichloroacetic acid, followed by ethanol and acetone washing.
Reaction mixture (20 μl) for results shown in open squares contained 1.12 μM [^3 H] Fpp, 4.38 ng FTase, 19 μM GST-CIIS, 0.1 mM EDTA and the indicated concentration of MgCl2. Reaction mixtures (20 μl) for results shown in closed diamond contained 0.1 mM ZnCl2 in addition to the above. Incubation was carried out for 10 minutes at 37° C. and radioactivity incorporated was determined as described herein.
Substrate specificity of yeast FTase was investigated by comparing incorporation of Fpp or GGpp into two different substrate proteins, GST-CIIS (.quadrature.) and GST-CIIL (.circle-solid.). […] The reaction mixture (20 μl) contained 1.12 μM [^3 H] Fpp, 20 ng FTase, and the indicated concentrations of either GST-CIIS or GST-CIIL1 protein. Incubations were carried out for 10 minutes at 37° C. and the radioactivity incorporated was measured as described herein.
Dilution of the peptides was made in 10 mM DTT. Incubation was carried out for 10 minutes at 37° C. and the radioactivity incorporated was determined as described herein.

Peptide text beside a SMILES is read from it.

`CCCC[C@@H](C)/C=C(C)/C=C(\C)C(=O)NC1=C[C@@](O)(/C=C/C=C/C=C/C(=O)NC2=C(O)CCC2=O)[C@@H]2O[C@@H]2C1=O` [UCF1-C]: the “mechanism of inhibition with respect to Fpp” value on yeast PFT (Lineweaver-Burk, changes Km for Fpp, not Vmax) is listed as “competitive inhibitor”. In addition, the “mechanism of inhibition with respect to ras protein” value at yeast PFT (Lineweaver-Burk, same Km for RAS2, constant Fpp) is reported as “non-competitive inhibitor”. In addition, the IC50 against yeast PFT (RAS2CT1, [3H]Fpp, Tris-HCl pH 8, no dithiothreitol, 37° C.) stood at 5 µM; at PGGT I (GST-CIIL, [3H]GGpp, Tris-HCl pH 7.4, read-out: IC50 for PGGT I inhibition), 180 µM. The affinity on yeast PFT (secondary plot of slopes against UCF1-C concentration, Fpp varied, constant ras), expressed as Ki, was 1.2 µM. In addition, on PGGT I (1 mM concentration), the “PGGT I activity still detectable” value is on record as “approximately 30%”.
For `[Cl-].[Na+]` [NaCl], at yeast FTase, the “inhibition of FTase activity by salts” value is “Approximately 50%”.
`[Cl-].[Li+]` [LiCl]: the “inhibition of FTase activity by salts” value at yeast FTase is recorded as “Approximately 50%”.
As to `[Cl-].[K+]` [KCl], the “inhibition of FTase activity by salts” value on yeast FTase was “Approximately 50%”.
With `CC(C)=CCC/C(C)=C/CC/C(C)=C/COP(=O)(O)OP(=O)(O)O` [Fpp, farnesyl pyrophosphate], the Km on yeast FTase (secondary plots, substrates Fpp and GST-CIIS varied) was determined as 8.1 µM.
`O=C(O)CN(CCN(CC(=O)O)CC(=O)O)CC(=O)O` [EDTA]: the “effect of EDTA addition on FTase activity” value at yeast FTase is “dramatic inhibition”.
`CSCC[C@H](NC(=O)[C@H](CC(C)C)NC(=O)[C@@H](NC(=O)[C@H](CS)NC(=O)[C@H](CS)NC(=O)[C@@H](NC(=O)[C@H](CO)NC(=O)[C@H](CC(N)=O)NC(=O)[C@H](CO)NC(=O)[C@@H](N)CC(N)=O)C(C)C)[C@@H](C)O)C(=O)O` [MG13, NSNSVCCTLM] (H-NSNSVCCTLM-OH) showed an IC50 on yeast FTase of 10 µM.
As for EHWSYGLRPG [LHRH], the “inhibition of FTase activity by peptide (in words)” value with yeast FTase (control peptides of the same size, unrelated sequences) is “little inhibition”.

A word on the IC50: it is the concentration needed to halve the response being measured. One may read the Ki as a dissociation constant, usually derived from enzyme kinetics or from competition with a known ligand. Low values mean tighter binding, high ones weaker binding. For orientation: Km means the substrate concentration at which the rate is half of its maximum.
